Source: publication PMC7822874, “Chemoprotective antimalarials identified through quantitative high-throughput screening of Plasmodium blood and liver stage parasites” (Scientific Reports, 2021)
Like-named read-outs stand apart in the source and are kept apart here.

Tests used:
in vitro = conditions: human
[1] = test system: P. berghei-ANKA-GFP-LucCON liver stage parasites in HepG2-A16-CD81EGFP cells; assay: P. berghei liver stage Pb-Luc assay, Method 1 (UCSD, 1536-well); format: cell-based, Plasmodium berghei; conditions: Plasmodium berghei, 48 h, average of 2 wells on a 1536 well plate; for activity at 1 µM: 1 uM (compounds provided at 10 mM); for activity at 3 µM: 3 uM (compounds provided at 10 mM)
[2] = test system: Plasmodium falciparum Dd2 asexual blood stage parasites; assay: microbe, parasite or virus in culture; design: species or system Plasmodium falciparum Dd2 in human erythrocytes; single determination (one 11-point concentration-response curve); conditions: Plasmodium falciparum, DD2, Erythrocyte, 72 h
[3] = HepG2-A16-CD81EGFP cells, uninfected
[4] = column 11, read-out: Pb-Luc (P. berghei liver stage), % of control, lower concentration, first repeat
[5] = column 12, read-out: Pb-Luc (P. berghei liver stage), % of control, lower concentration, second repeat
[6] = column 8, read-out: Pb-Luc (P. berghei liver stage), % of control, higher concentration, first repeat
[7] = column 9, read-out: Pb-Luc (P. berghei liver stage), % of control, higher concentration, second repeat

COc1ccccc1-c1nnc2sc(COc3ccc(F)cc3)nn12 [MLS000042616-01]
viability at 48 h (in vitro; [3]): 102%
viability at 48 h, 1 µM (in vitro; [3]): 102%

C=CCNc1nc(N(c2ccccc2)c2ccccc2)nc(-n2ccnc2)n1 [MLS000045718-01]
viability at 66 h (in vitro; [3]): 107%

CCCN(CCC)C(=O)Cn1ccc(=N)c2ccccc21 [MLS000047676-01]
viability at 48 h, 1 µM (in vitro; [3]): 95%
viability at 48 h, 3 µM (in vitro; [3]): 87%

COc1cccc(N2C(N)=NC(N)=NC2(C)C)c1 [MLS000047853-01]
viability at 48 h (in vitro; [3]): 103%
viability at 48 h, 1 µM (in vitro; [3]): 103%

CCOc1cc(C2NCc3ccccc3-n3cccc32)ccc1O (stereo not drawn) [MLS000047991-01]
viability at 48 h, 1 µM (in vitro): 97%
viability at 48 h, 3 µM (in vitro): 95%

COc1cccc(OCCn2cc(C(=O)c3ccco3)c3ccccc32)c1 [MLS000050800-01]
activity at 1 µM [1, 4]: 134%
activity at 1 µM [1, 5]: 132%
activity at 3 µM [1, 6]: 134%
activity at 3 µM [1, 7]: 113%

CC(C)(C)NC(=O)Cn1ccc(=N)c2ccccc21 [MLS000068809-01]
viability at 48 h, 1 µM (in vitro; [3]): 99%
viability at 48 h, 3 µM (in vitro; [3]): 97%

CCOC(=O)Cn1c2c(c(=N)c3c1CCC3)CCC2 [MLS000080129-01]
viability at 66 h (in vitro; [3]): 99.5%

CC(C)c1ccc(O)c(CN2CCN(c3ccccc3)CC2)c1 [MLS000084718-01]
AC50 [2]: 1330 nM
activity at 1 µM [1, 4]: 105%
activity at 1 µM [1, 5]: 80%
activity at 3 µM [1, 6]: 97%
activity at 3 µM [1, 7]: 96%

COC(=O)c1cc2sc(Cl)cc2n1CC(=O)Nc1ccc(OC)c(OC)c1OC [MLS000093488-01]
viability at 48 h (in vitro; [3]): 101%
viability at 48 h, 1 µM (in vitro; [3]): 101%

CCOC(=O)C1=C(C)NC2=C(C(=O)CCC2)C1c1cn(Cc2ccc(Cl)cc2Cl)nc1-c1ccccc1 (stereo not drawn) [MLS000324811-01]
viability at 48 h, 1 µM (in vitro; [3]): 106%
viability at 48 h, 3 µM (in vitro; [3]): 96%

CN(C)S(=O)(=O)Oc1ccsc1C(=O)Nc1cccc(Cl)c1 [MLS000327935-01]
viability (in vitro): 102%

Cc1nn(-c2ccc([N+](=O)[O-])cc2)c2c1C(c1cccc(Br)c1)N1C(=N2)C(=O)Nc2ccccc21 (stereo not drawn) [MLS000331784-01]
viability at 48 h, 1 µM (in vitro; [3]): 105%
viability at 48 h, 3 µM (in vitro; [3]): 102%

Cc1ccc(C(=O)c2oc3ccccc3c2NC(=O)c2cc(-c3cc(C)ccc3O)[nH]n2)cc1 [MLS000331963-01]
viability at 48 h, 1 µM (in vitro; [3]): 103%
viability at 48 h, 3 µM (in vitro; [3]): 102%

COc1ccc(-c2c[n+](CC(=O)c3cccs3)c3n2CCC3)cc1 [MLS000333575-01]
viability (in vitro): 101%

NS(=O)(=O)c1cccc(NC(=O)CSc2nn(-c3ccccc3)c(=S)s2)c1 [MLS000339501-01]
viability at 48 h, 1 µM (in vitro; [3]): 105%
viability at 48 h, 3 µM (in vitro; [3]): 100%

O=S(=O)(c1ccc(F)cc1)N1CCN(/C(S)=N/Cc2ccco2)CC1 [MLS000409296-01]
viability at 66 h (in vitro; [3]): 103%

CCOC(=O)c1nnn(-c2nonc2N)c1-c1ccc(C)cc1 [MLS000519435-01]
AC50 ([2]; read-out: AC50): 5310 nM
activity at 1 µM [1, 4]: 122%
activity at 1 µM [1, 5]: 101%
activity at 3 µM [1, 6]: 135%
activity at 3 µM [1, 7]: 119%

Cc1ccc2c(c1)-c1c(ssc1=S)C(C)(C)N2C(=O)c1ccco1 [MLS000525939-01]
viability at 48 h, 1 µM (in vitro; [3]): 100%
viability at 48 h, 3 µM (in vitro; [3]): 100%

CCc1ccc2c(c1)C1(NN=C(c3ccc(C)cc3)S1)C(=O)N2 (stereo not drawn) [MLS000528737-01]
viability at 48 h, 1 µM (in vitro; [3]): 115%
viability at 48 h, 3 µM (in vitro; [3]): 80%

Oc1c(Br)cc(Br)cc1CN1CCN(Cc2ccccc2)CC1 [MLS000530313-01]
AC50 ([2]; read-out: AC50): 1060 nM
activity at 1 µM [1, 4]: 129%
activity at 1 µM [1, 5]: 112%
activity at 3 µM [1, 6]: 102%
activity at 3 µM [1, 7]: 112%

Cc1nc2c(n1C1CCCCC1)C(=O)c1ccccc1C2=O [MLS000564113-01]
activity at 1 µM [1, 4]: 95%
activity at 1 µM [1, 5]: 107%
activity at 3 µM [1, 6]: 85%
activity at 3 µM [1, 7]: 94%

Cc1ccccc1Nc1nnc(SCc2cc(=O)n3ccsc3n2)s1 [MLS000565690-01]
viability at 48 h, 1 µM (in vitro; [3]): 107%
viability at 48 h, 3 µM (in vitro; [3]): 101%

Cc1ccc(NN=C2C=CC(=O)c3ncccc32)cc1 [MLS000585898-01]
viability at 48 h, 1 µM (in vitro; [3]): 93%
viability at 48 h, 3 µM (in vitro; [3]): 88%

CCOc1ccc2nc(C)cc(Nc3cccc([N+](=O)[O-])c3)c2c1 [MLS000663974-01]
viability at 66 h (in vitro; [3]): 102%

c1cc(Nc2ncnc3sc4c(c23)CCC4)ccn1 [MLS000681348-01]
viability at 48 h (in vitro; [3]): 103%
viability at 48 h, 1 µM (in vitro; [3]): 103%

Cc1ccc(-n2nc3c(Cl)nnc(C)c3c2C)cc1 [MLS000698458-01]
viability at 48 h, 1 µM (in vitro; [3]): 105%
viability at 48 h, 3 µM (in vitro; [3]): 104%

CCOc1cc(CNC(C)C(O)c2ccccc2)cc(Cl)c1OCC (stereo not drawn) [MLS000701716-01]
viability at 48 h, 1 µM (in vitro): 90%
viability at 48 h, 3 µM (in vitro): 88%

CCOC(=O)Cn1c2c(c(=N)c3c1CCC3)CCCC2 [MLS000702567-01]
viability at 66 h (in vitro; [3]): 106%

Cc1ccc(-c2nc(CN3CCCCC3)cc(CN3CCCCC3)c2O)cc1 [MLS000713293-01]
viability at 48 h (in vitro; [3]): 101%
viability at 48 h, 1 µM (in vitro; [3]): 101%

Cc1cccc(CSc2nn3c(=O)c(C)nnc3s2)c1 [MLS000724933-01]
viability at 48 h, 1 µM (in vitro; [3]): 115%
viability at 48 h, 3 µM (in vitro; [3]): 100%

Cc1ccc(CN(C)C(=O)c2cc(COc3ccc(F)cc3Cl)on2)o1 [MLS000734222-01]
viability at 66 h (in vitro; [3]): 101%
